Results on 21 compounds are retold here after patent publication US11773078B2, “Furin inhibitors” (Glaxosmithkline Intellectual Property Development Limited, priority 2018, dated 2023).

The target of test [1] is T1, furin (endogenous protease) in U20S cells (Homo sapiens, UniProt P09958).
T1 construct: the endogenous protease cleaves GFP; endogenous in cells; host or cells: U2OS cells transduced with a BacMam reporter
Kind of test: Furin cell-based assay (image-based, Golgi-targeted GFP with BMP10 furin/PCSK cleavage site).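 Also: Read-out is mean GFP fluorescence of Golgi puncta per cell by high-content imaging, retained when furin inhibited, over an eleven-point 0.00017–10 µM series, four-parameter fit.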 The conditions noted are these: 24-hour incubation, read-out: furin golgi cell pXC50 (converted).

Test [2] concerns the target T2, Furin (108-574-Tev-Flag-His) enzyme (Homo sapiens, UniProt P09958).
T2 construct: Furin (108-574-Tev-Flag-His) enzyme was expressed and purified from CHO cells; TEV cleavage site (C); FLAG (C); His (C); made in house; host or cells: CHO cells
The experiment in a line: Furin enzyme assay. The format is biochemical. The method, then: Reactions were performed in black 384-well polystyrene low volume plates (Greiner). Furin (108-574-Tev-Flag-His) enzyme was expressed and purified from CHO cells. Compounds of the invention were dissolved in DMSO (1.0 mM) and serially diluted 1 to 3 with DMSO through eleven dilutions to provide a final compound concentration range from 0.00017 to 10 μM. 0.05 μL of each concentration was transferred to the corresponding well of an assay plate, and then 5 μL of 40 pM furin enzyme in assay buffer (100 mM HEPES pH7.5, 1 mM CaCl2 and 0.005% Triton X-100) was added using a Multidrop Combi (Thermo) to the compound plates, and mixed by inversion. […] The plates were centrifuged at 500×g for 1 minute and incubated at room temperature for two hours. Enzyme inhibition is then quantified using an Envision instrument (PerkinElmer).
Data were analyzed using AbaseXE 7.3, utilizing a four-parameter curve fit equation. The following values were used to define limits and/or constraints for each of the four parameters: • Minimum—limit −10 to 10 • Maximum—90 to 110 • Slope—limit 0.5 to 2.0 • pXC50 confidence interval—10
Raw counts obtained from the respective plate reader (Perkin Elmer) were captured for data analysis. Curves were generated using the equation: Y=A+[(B−A)/(1+(10^C/x)^D)] • where: A=minimum response • B=maximum response • C=log 10*XC50 • D=slope factor • x=log 10 compound concentration [M]
The results were recorded as pXC50 values (−C in the above equation)

Where a name gives a salt, the structure may show the parent alone.

T1 sequence (P09958 108-794): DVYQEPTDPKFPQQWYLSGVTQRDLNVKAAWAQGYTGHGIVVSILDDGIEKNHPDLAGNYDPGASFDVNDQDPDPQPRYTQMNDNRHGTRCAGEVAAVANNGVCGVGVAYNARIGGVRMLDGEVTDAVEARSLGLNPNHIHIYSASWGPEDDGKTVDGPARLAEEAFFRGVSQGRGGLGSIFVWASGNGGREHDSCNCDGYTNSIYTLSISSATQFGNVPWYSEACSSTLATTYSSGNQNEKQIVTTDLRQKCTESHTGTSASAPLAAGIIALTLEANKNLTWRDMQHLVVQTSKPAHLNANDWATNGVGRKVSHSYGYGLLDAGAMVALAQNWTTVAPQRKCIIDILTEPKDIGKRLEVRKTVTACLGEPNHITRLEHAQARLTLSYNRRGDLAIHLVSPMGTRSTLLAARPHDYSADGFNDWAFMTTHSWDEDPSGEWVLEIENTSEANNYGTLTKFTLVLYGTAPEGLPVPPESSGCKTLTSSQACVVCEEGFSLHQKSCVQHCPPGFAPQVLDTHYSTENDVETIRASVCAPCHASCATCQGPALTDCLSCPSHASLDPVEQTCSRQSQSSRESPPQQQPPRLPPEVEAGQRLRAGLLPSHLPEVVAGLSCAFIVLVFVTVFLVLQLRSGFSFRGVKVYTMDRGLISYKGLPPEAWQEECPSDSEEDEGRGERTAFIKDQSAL
T2 sequence (P09958 108-574): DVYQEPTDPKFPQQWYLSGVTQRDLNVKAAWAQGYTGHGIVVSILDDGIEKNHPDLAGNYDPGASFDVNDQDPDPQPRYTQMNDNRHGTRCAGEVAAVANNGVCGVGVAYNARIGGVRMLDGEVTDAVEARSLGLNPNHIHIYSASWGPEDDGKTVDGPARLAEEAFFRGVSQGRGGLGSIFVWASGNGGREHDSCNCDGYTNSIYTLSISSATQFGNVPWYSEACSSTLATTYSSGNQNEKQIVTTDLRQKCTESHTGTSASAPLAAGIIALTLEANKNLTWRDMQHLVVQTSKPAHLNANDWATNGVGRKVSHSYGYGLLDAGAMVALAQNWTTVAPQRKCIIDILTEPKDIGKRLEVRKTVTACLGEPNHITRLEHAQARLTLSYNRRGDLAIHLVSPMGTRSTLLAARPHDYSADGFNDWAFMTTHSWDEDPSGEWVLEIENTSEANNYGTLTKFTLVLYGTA

On to `CNC(=O)OCC1CCN(Cc2cc(Oc3ccc(N4CCN(CCC(=O)O)CC4)nc3)nc(-c3cc(Cl)cc(Cl)c3)c2)CC1` [Example 77, 3-(4-(5-((6-(3,5-Dichlorophenyl)-4-((4-(((methylcarbamoyl)oxy)methyl)piperidin-1-yl)methyl)pyridin-2-yl)oxy)pyridin-2-yl)piperazin-1-yl)propanoic acid, 4 hydrochloride], for which the EC50 in test [1] is 63.1 nM. In addition, the “furin enzyme pIC50” value in test [2] is reported as 9.1.
For `O=C(O)CC1CCN(Cc2cc(Oc3cnc(N4CCN(CC(O)CO)CC4)nc3)nc(-c3cc(Cl)cc(Cl)c3)c2)CC1` (centres unmarked) [Example 177, 2-(1-((2-(3,5-dichlorophenyl)-6-((2-(4-(2,3-dihydroxypropyl)piperazin-1-yl)pyrimidin-5-yl)oxy)pyridin-4-yl)methyl)piperidin-4-yl)acetic acid], in that order: 20 nM and 9.2.
For `CNCc1cc(Oc2ccc(N3CCN(C)CC3)nc2)cc(-c2cc(Cl)cc(Cl)c2)c1` [Example 104, 1-(3′,5′-dichloro-5-((6-(4-methylpiperazin-1-yl)pyridin-3-yl)oxy)-[1,1′-biphenyl]-3-yl)-N-methylmethanamine], in test [1], the EC50 is 25.1 nM. The “furin enzyme pIC50” value in test [2] is listed as 8.5.
For `CC(=O)NCC1CCN(Cc2cc(Oc3cnc(N4CCN(CCCC(N)=O)CC4)nc3)nc(-c3cc(Cl)cc(Cl)c3)c2)CC1` [Example 96, 4-(4-(5-((4-((4-(Acetamidomethyl)piperidin-1-yl)methyl)-6-(3,5-dichlorophenyl)pyridin-2-yl)oxy)pyrimidin-2-yl)piperazin-1-yl)butanamide], in that order: 1.58 nM and 9.
For `O=C(O)CC1CCN(Cc2cc(Oc3cnc(N4CCN(Cc5cnn[nH]5)CC4)nc3)nc(-c3cc(Cl)cc(Cl)c3)c2)CC1` [Example 387, 2-(1-((2-((2-(4-((1H-1,2,3-Triazol-5-yl)methyl)piperazin-1-yl)pyrimidin-5-yl)oxy)-6-(3,5-dichlorophenyl)pyridin-4-yl)methyl)piperidin-4-yl)acetic acid] the same measures were 25.1 nM and 8.5.
As for `CC(=O)NCC1CCN(Cc2cc(Oc3ccc(N4CC[N+](C)(O)CC4)nc3)nc(-c3cc(Cl)cc(Cl)c3)c2)CC1` [Example 178, 4-(5-((4-((4-(Acetamidomethyl)piperidin-1-yl)methyl)-6-(3,5-dichlorophenyl)pyridin-2-yl)oxy)pyridin-2-yl)-1-methylpiperazine1-oxide], the EC50 in test [1] was < 2.51 nM. The “furin enzyme pIC50” value in test [2] is reported as 8.9.
Turning to `C[C@H](CC1CCN(Cc2cc(Oc3ccc(N4CCN(C)CC4)nn3)nc(-c3cc(Cl)cc(Cl)c3)c2)CC1)C(=O)O` [Example 364, (R)-3-(1-((2-(3,5-dichlorophenyl)-6-((6-(4-methylpiperazin-1-yl)pyridazin-3-yl)oxy)pyridin-4-yl)methyl)piperidin-4-yl)-2-methylpropanoic acid], in test [1], the EC50 was 31.6 nM.
Take `CN1CCN(c2ncc(Oc3cc(CN4CC[C@@H]5[C@H](CC4)[C@H]5CC(=O)O)cc(-c4cc(Cl)cc(Cl)c4)n3)cn2)CC1` [Example 224, 2-((1R,7S,8r)-4-((2-(3,5-dichlorophenyl)-6-((2-(4-methylpiperazin-1-yl)pyrimidin-5-yl)oxy)pyridin-4-yl)methyl)-4-azabicyclo[5.1.0]octan-8-yl)acetic acid]: in test [1], the EC50 is 7.94 nM. Also, in test [2], the “furin enzyme pIC50” value is 8.7.
For `CNCc1cc(Oc2ccc(N3CCC(N)CC3)nc2)nc(-c2cc(C)cc(Cl)c2)c1` [Example 108, 1-(5-((6-(3-Chloro-5-methylphenyl)-4-((methylamino)methyl)pyridin-2-yl)oxy)pyridin-2-yl)piperidin-4-amine, 4 hydrochloride], in that order: > 50100 nM and 7.5.
For `C[C@]1(O)C[C@H](N2CCN(c3ncc(Oc4cc(CN5CCC(CC(=O)O)CC5)cc(-c5cc(Cl)cc(Cl)c5)n4)cn3)CC2)C1` [Example 25, 2-(1-((2-(3,5-dichlorophenyl)-6-((2-(4-((1r,3r)-3-hydroxy-3-methylcyclobutyl)piperazin-1-yl)pyrimidin-5-yl)oxy)pyridin-4-yl)methyl)piperidin-4-yl)acetic acid] the same measures were 12.6 nM and 8.2.
For `CC(=O)NC(=O)NCC1CCN(Cc2cc(Oc3cnc(N4CCN(C)CC4)nc3)nc(-c3cc(Cl)cc(Cl)c3)c2)CC1` [Example 327] the same measures were 3.16 nM and 8.6.
Consider `CN1CCN(c2ncc(Oc3cc(CN4CCC(CC(=O)O)CC4)cc(-c4cc(Cl)cc(Cl)c4)n3)cc2F)CC1` [Example 151, 2-(1-((2-(3,5-dichlorophenyl)-6-((5-fluoro-6-(4-methylpiperazin-1-yl)pyridin-3-yl)oxy)pyridin-4-yl)methyl)piperidin-4-yl)acetic acid], for which the EC50 in test [1] is 100 nM. Besides, in test [2], the “furin enzyme pIC50” value came out at 8.2.
Consider `CN1C2CC1CN(c1cnc(Oc3cc(CN4CCC(CC(=O)O)CC4)cc(-c4cc(Cl)cc(Cl)c4)n3)cn1)C2` [Example 352, 2-(1-((2-(3,5-dichlorophenyl)-6-((5-(6-methyl-3,6-diazabicyclo[3.1.1]heptan-3-yl)pyrazin-2-yl)oxy)pyridin-4-yl)methyl)piperidin-4-yl)acetic acid], for which the EC50 in test [1] is 50.1 nM. For the same compound, the “furin enzyme pIC50” value in test [2] turned out to be 8.2.
For `CN1CCN(c2ccc(Oc3cc(CN4CCC(CC(=O)O)CC4)cc(-c4cc(Cl)cc(Cl)c4)n3)nn2)CC1` [Example 359, 2-(1-((2-(3,5-dichlorophenyl)-6-((6-(4-methylpiperazin-1-yl)pyridazin-3-yl)oxy)pyridin-4-yl)methyl)piperidin-4-yl)acetic acid], in that order: 63.1 nM and 9.
For `CNC(=O)NCC1CCN(Cc2cc(Oc3ccc(N4CCN(C[C@@H](C)O)CC4)nc3)nc(-c3cc(Cl)cc(Cl)c3)c2)CC1` [Example 309, (R)-1-((1-((2-(3,5-dichlorophenyl)-6-((6-(4-(2-hydroxypropyl)piperazin-1-yl)pyridin-3-yl)oxy)pyridin-4-yl)methyl)piperidin-4-yl)methyl)-3-methylurea], in that order: 2.51 nM and 9.8.
For `CN1CCN(c2cnc(Oc3nc(-c4cc(Cl)cc(Cl)c4)cc(CN4CCC(CC(=O)O)CC4)c3F)cn2)CC1` [Example 390, 2-(1-((6-(3,5-Dichlorophenyl)-3-fluoro-2-((5-(4-methylpiperazin-1-yl)pyrazin-2-yl)oxy)pyridin-4-yl)methyl)piperidin-4-yl)acetic acid], the “furin enzyme pIC50” value in test [2] turned out to be 8.3.
As to `CN1CCN(c2ncc(Oc3cc(CN4CC[C@@H]5[C@H](CC4)[C@H]5C(=O)O)cc(-c4cc(Cl)cc(Cl)c4)n3)cn2)CC1` [Example 321, (1R,7S,8r)-4-((2-(3,5-dichlorophenyl)-6-((2-(4-methylpiperazin-1-yl)pyrimidin-5-yl)oxy)pyridin-4-yl)methyl)-4-azabicyclo[5.1.0]octane-8-carboxylic acid], the EC50 in test [1] was 15.8 nM.
In the case of `COC(=O)NC(=O)CCN1CCN(c2ncc(Oc3cc(CN4CCC(CNC(C)=O)CC4)cc(-c4cc(Cl)cc(Cl)c4)n3)cn2)CC1` [Example 175, methyl (3-(4-(5-((4-((4-(acetamidomethyl)piperidin-1-yl)methyl)-6-(3,5-dichlorophenyl)pyridin-2-yl)oxy)pyrimidin-2-yl)piperazin-1-yl)propanoyl)carbamate], in test [2], the “furin enzyme pIC50” value was determined as 9.2.
In the case of `CNC(=O)NCC1CCN(Cc2cc(Oc3ccc(N4CCN(CCCS(N)(=O)=O)CC4)nc3)nc(-c3cc(Cl)cc(Cl)c3)c2)CC1` [Example 260, 3-(4-(5-((6-(3,5-dichlorophenyl)-4-((4-((3-methylureido)methyl)piperidin-1-yl)methyl)pyridin-2-yl)oxy)pyridin-2-yl)piperazin-1-yl)propane-1-sulfonamide], in test [1], the EC50 is 6.31 nM.
For `COC(=O)NC(=O)CCN1CCN(c2ncc(Oc3cc(CN4CCC(CNC(C)=O)CC4)cc(-c4cc(Cl)cc(Cl)c4)n3)cn2)CC1` [Example 172, methyl (3-(4-(5-((4-((4-(acetamidomethyl)piperidin-1-yl)methyl)-6-(3,5-dichlorophenyl)pyridin-2-yl)oxy)pyrimidin-2-yl)piperazin-1-yl)propanoyl)carbamate], the IC50 in test [2] (read-out: furin enzyme pIC50 (converted)) is 0.251 nM.
Turning to `CC(=O)NCC1CCN(Cc2cc(Oc3ncc(N)cn3)cc(-c3cc(Cl)cc(Cl)c3)c2)CC1` [Example 43, N-((1-((5-((5-aminopyrimidin-2-yl)oxy)-3′,5′-dichloro-[1,1′-biphenyl]-3-yl)methyl)piperidin-4-yl)methyl)acetamide], the “furin enzyme pIC50” value in test [2] is listed as 6.
